Measurements as given in ChEMBL document CHEMBL3832046, “DailyMed|setid=1da7847b-16e4-4bf1-957f-3894d023b339 | VIAGRA - sildenafil citrate tablet, film coated|PD-Rx Pharmaceuticals, Inc”.

How the values were obtained:
[1] = (§1) Pharmacokinetic parameters for Sildernafil following oral administration of Sildernafil citrate tablets (Viagra).; assay type: ADME, organism-based; conditions: human, in vivo, dosed compound id 36, dosed compound name SILDERNAFIL CITRATE, tissue Plasma
Homo sapiens = assay: as §1; assay type: ADME, organism-based; conditions: in vivo, po, dosed compound id 36, dosed compound name SILDERNAFIL CITRATE, tissue Plasma

Tmax ([1]; dietary status Fasting): 1 h
bioavailability [1]: 41%
Vss (Homo sapiens): 105 L
SMILES: CCCc1nn(C)c2c(=O)[nH]c(-c3cc(S(=O)(=O)N4CCN(C)CC4)ccc3OCC)nc12.O=C(O)CC(O)(CC(=O)O)C(=O)O [SILDENAFIL CITRATE]
